According to patent US7754768B2, “Methods and compositions for modulating alpha adrenergic receptor activity” (Allergan, Inc., priority 2000, dated 2010):

Columns and labels:
[1] = test system: African Green monkeys made glaucomatous; assay: Intraocular pressure in glaucomatous African Green monkeys after oral dosing; format: in vivo, African Green monkey
Description: African Green monkeys are made glaucomatous and divided into three groups. Ocular hypertension is measured before the administration of any drug, then one of each group of animals is given an oral dose of either a) glucose (negative control); b) a formulation of FORMULA 2 at a dosage of either 2 mg/kg or 7 mg/kg, or c) Diamox® (acetazolamide; a carbonic anhydrase inhibitor used for treatment of glaucoma) (positive control) at a concentration of 20 mg/kg. Intraocular pressure is measured at 0, 6, 12, and 24 hours following administration of each formulation.

[2] = test system: male Sprague-Dawley rats; assay: Rat locomotor model to assess sedation (exploratory activity); format: in vivo; settings: 30 minutes after injection, versus vehicle controls
Description: (§1) The physiological activity of these compounds was tested using four models: a rat locomotor model to assess sedation, an assay of cardiovascular activity in monkeys, a rat thermal paw withdrawal assay (Dirig et al., J. Neurosci. Methods 76:183-191 (1997) to test the alleviation of acute pain, and the rat spinal nerve ligation allodynia model (Kim and Chung, Pain 50:355-363 (1992) to assess the alleviation of neuropathic pain and central sensitization typical of chronic pain. As is known to those of skill in the art, these tests are established pharmacological methods for determining sedation, cardiovascular effects, acute pain and chronic pain, respectively, of pharmaceutical agents.
To test sedation, six male Sprague-Dawley rats were given up to 3 mg/kg of each compound in a saline or DMSO vehicle by intraperitoneal injection (i.p.). Sedation was graded 30 minutes following administration of the drug by monitoring locomotor skills as follows.
The Sprague-Dawley rats are weighed and 1 ml/kg body weight of an appropriate concentration (ie. 3 mg/ml for a final dose of 3 mg/kg) drug solution is injected intraperitoneally. FORMULA 3 is formulated in approximately 10% DMSO and FORMULA 2 and FORMULA 4 are formulated in 50% DMSO. The results are compared to 29 historical controls that were injected with 1 ml/kg saline or 50% DMSO. Rat activity is then determined 30 minutes after injection of the drug solution. Rats are placed in a dark covered chamber and a digicom analyzer (Omnitech Electronic) quantitates their exploratory behavior for a five-minute period. The machine records each time the rat interrupts an array of 32 photoelectric beams in the X and Y orientation.
FORMULA 2 and FORMULA 3 were tested at 1 mg/kg and FORMULA 4 was tested at 3 mg/kg. Thus, the compounds are not sedating.

[3] = test system: rat spinal nerve ligation allodynia model; assay: Rat spinal nerve ligation allodynia model (chronic pain, von Frey tactile allodynia); format: in vivo; settings: 30 minutes after administration
Description: as §1
A model for chronic pain (in particular peripheral neuropathy such as causalgia) involves the surgical ligation of the L5 (and optionally the L6) spinal nerves on one side in experimental animals. Rats recovering from the surgery gain weight and display a level of general activity similar to that of normal rats. However, these rats develop abnormalities of the foot, wherein the hindpaw is moderately everted and the toes are held together. More importantly, the hindpaw on the side affected by the surgery appears to become sensitive to pain from low-threshold mechanical stimuli, such as that producing a faint sensation of touch in a human, within about 1 week following surgery. This sensitivity to normally non-painful touch is called “tactile allodynia” and lasts for at least two months. The response includes lifting the affected hindpaw to escape from the stimulus, licking the paw and holding it in the air for many seconds. None of these responses is normally seen in the control group.
Rats are anesthetized before surgery. The surgical site is shaved and prepared either with betadine or Novacaine. Incision is made from the thoracic vertebra X111 down toward the sacrum. Muscle tissue is separated from the spinal vertebra (left side) at the L4-S2 levels. The L6 vertebra is located and the transverse process is carefully removed with a small rongeur to expose the L4-L6 spinal nerves. The L5 and L6 spinal nerves are isolated and tightly ligated with 6-0 silk thread. The same procedure is done on the right side as a control, except no ligation of the spinal nerves is performed.
A complete hemostasis is confirmed, then the wounds are sutured. A small amount of antibiotic ointment is applied to the incised area, and the rat is transferred to the recovery plastic cage under a regulated heat-temperature lamp. […]
Tactile allodynia is measured prior to and 30 minutes after drug administration using von Frey hairs that are a series of fine hairs with incremental differences in stiffness. […] The applied force has been calculated to range from 0.41 to 15.1 grams. […]

[4] = test system: allodynia resulting from shingles; assay: Treatment of allodynia resulting from shingles in a patient; format: in vivo, human; settings: oral capsule as needed, after two days' treatment, one patient
Excerpt: A person in generally good physical condition suffers from serious pain to their upper body due caused by contact of their skin with their clothing. The patient is unable to wear clothing on their upper body without severe pain. […] The patient is given a therapeutically effective oral dose of FORMULA 3 in capsule form as needed for the treatment of pain. […] Same facts as in Example 5, except the patient is given a therapeutically effective oral dose of FORMULA 2 in capsule form as needed for the treatment of pain.

[5] = test system: visceral pain; assay: Treatment of visceral pain in a colon cancer patient; format: in vivo, human; settings: intravenous infusion twice daily, after two days, one patient
Excerpt: A patient suffering from colon cancer and undergoing chemotherapy experiences severe visceral pain associated with this primary condition. Treatment of this pain with opiates has been ineffective to provide substantial relief. The patient is given a therapeutic amount of FORMULA 3 by intravenous infusion in a pharmaceutically acceptable vehicle. The treatment is given twice daily. […] Under the same facts as Example 7, except the patient is given FORMULA 2 instead of FORMULA 3.

CC(=O)Nc1nnc(S(N)(=O)=O)s1 [Diamox ®, acetazolamide, reference compound]
Change in Intraocular Pressure (%) ([1]; oral 20 mg/kg (positive control), 0 hours): 0%
Change in Intraocular Pressure (%) ([1]; oral 20 mg/kg (positive control), 6 hours): −38%
Change in Intraocular Pressure (%) ([1]; oral 20 mg/kg (positive control), 12 hours): −41%
Change in Intraocular Pressure (%) ([1]; oral 20 mg/kg (positive control), 24 hours): −18%

OCCNC(=S)NCc1ccc(F)cc1 [FORMULA 3]
Sedation: reduction in the exploratory activity of the rats ([2]; 1 mg/kg i.p.): not sedating
Reduction of the response to tactile stimuli that indicate tactile allodynia (analgesic in chronic pain model) [3]: analgesic in a model of chronic pain
Patient-reported allodynia resulting from shingles [4]: markedly reduced
Patient-reported visceral pain [5]: significant alleviation

OCCNC(=S)NCc1ccccc1F [FORMULA 4, reference compound]
Sedation: reduction in the exploratory activity of the rats ([2]; 3 mg/kg i.p.): not sedating
Analgesic activity (tactile allodynia) ([3]; i.p. doses up to 3 mg/kg): no analgesic activity

OCCNC(=S)NCc1ccc(F)cc1 [AGN196204]
Reduction of the response to tactile stimuli that indicate tactile allodynia (analgesic in chronic pain model) [3]: able to reduce the response to the tactile stimuli

OCCNC(=S)NCc1cccc(Cl)c1F [FORMULA 2, 1-(3-chloro-2-fluorobenzyl)-3-(2-hydroxyethyl)-thiourea]
Sedation: reduction in the exploratory activity of the rats ([2]; 1 mg/kg i.p.): not sedating
Reduction of the response to tactile stimuli that indicate tactile allodynia (analgesic in chronic pain model) [3]: able to reduce the response to the tactile stimuli
Change in Intraocular Pressure (%) ([1]; oral 2 mg/kg, 0 hours): 0%
Change in Intraocular Pressure (%) ([1]; oral 2 mg/kg, 6 hours): −18%
Change in Intraocular Pressure (%) ([1]; oral 2 mg/kg, 12 hours): −32%
Change in Intraocular Pressure (%) ([1]; oral 2 mg/kg, 24 hours): −3%
Change in Intraocular Pressure (%) ([1]; oral 7 mg/kg, 0 hours): 0%
Change in Intraocular Pressure (%) ([1]; oral 7 mg/kg, 6 hours): −22%
Change in Intraocular Pressure (%) ([1]; oral 7 mg/kg, 12 hours): −26%
Change in Intraocular Pressure (%) ([1]; oral 7 mg/kg, 24 hours): −15%
Patient-reported allodynia resulting from shingles [4]: markedly reduced
Patient-reported visceral pain [5]: significant alleviation
